Measured values as given in PubChem BioAssay (NCI).
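The concentration for 50% growth inhibition is given as GI50. TGI marks complete inhibition of growth.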

What was measured:
Test in all cases: DTP human tumour cell line panel, 384-well format; in the data active = GI50 below about 0.43 µM; inactive = the rest
HT29 colon = test system: HT29 colon
OVCAR-4 ovarian = test system: OVCAR-4 ovarian
MOLT-4 leukemia = test system: MOLT-4 leukemia
HCT-15 colon = test system: HCT-15 colon
A549 NSCLC = test system: A549 NSCLC
OVCAR-8 ovarian = test system: OVCAR-8 ovarian
OVCAR-3 ovarian = test system: OVCAR-3 ovarian
SNB-19 CNS = test system: SNB-19 CNS
U251 glioblastoma = test system: U251 glioblastoma
HOP-62 NSCLC = test system: HOP-62 NSCLC
HS 578T breast = test system: HS 578T breast
EKVX NSCLC = test system: EKVX NSCLC
SN12C renal = test system: SN12C renal
HOP-92 NSCLC = test system: HOP-92 NSCLC
NCI-H522 lung = test system: NCI-H522 lung
UACC-257 melanoma = test system: UACC-257 melanoma
LOX IMVI melanoma = test system: LOX IMVI melanoma
KM12 colon = test system: KM12 colon
ACHN renal = test system: ACHN renal
MDA-MB-468 breast = test system: MDA-MB-468 breast
SK-OV-3 ovarian = test system: SK-OV-3 ovarian
RPMI-8226 leukemia = test system: RPMI-8226 leukemia
MALME-3M melanoma = test system: MALME-3M melanoma
UO-31 renal = test system: UO-31 renal
T-47D breast = test system: T-47D breast
MDA-MB-435 melanoma = test system: MDA-MB-435 melanoma
HCC-2998 colon = test system: HCC-2998 colon
SW-620 colon = test system: SW-620 colon
SNB-75 CNS = test system: SNB-75 CNS

CN[C@@H](C)C(=O)N[C@H](C(=O)N1CCC[C@H]1C(=O)Nc1snnc1-c1ccccc1)C1CCCCC1
0.046 µM: TGI (OVCAR-4 ovarian)
inactive: GI50 (HT29 colon) 17.3 µM | GI50 (MOLT-4 leukemia) 17.8 µM | GI50 (HCT-15 colon) 80.7 µM | GI50 (A549 NSCLC) > 100 µM | GI50 (OVCAR-8 ovarian) 16.5 µM | GI50 (OVCAR-3 ovarian) 26.2 µM | GI50 (SNB-19 CNS) > 100 µM | GI50 (U251 glioblastoma) 59.7 µM | GI50 (HOP-62 NSCLC) 11.2 µM | GI50 (HS 578T breast) 34.5 µM | GI50 (EKVX NSCLC) 97.3 µM | GI50 (SN12C renal) > 100 µM | GI50 (HOP-92 NSCLC) 18.1 µM | GI50 (NCI-H522 lung) 2.44 µM | GI50 (UACC-257 melanoma) 16.6 µM | GI50 (LOX IMVI melanoma) 37.9 µM | GI50 (KM12 colon) 60.1 µM | GI50 (ACHN renal) 17.4 µM | GI50 (MDA-MB-468 breast) 6.93 µM | GI50 (RPMI-8226 leukemia) 22.7 µM | GI50 (UO-31 renal) 8.13 µM | GI50 (T-47D breast) 45.5 µM | GI50 (MDA-MB-435 melanoma) 31.2 µM | GI50 (HCC-2998 colon) 21.5 µM | GI50 (SW-620 colon) > 100 µM | GI50 (SNB-75 CNS) 38.7 µM
32.5 µM: TGI (UACC-257 melanoma)
35.6 µM: TGI (MOLT-4 leukemia)
39.5 µM: TGI (ACHN renal)
35.7 µM: TGI (HT29 colon)
33.2 µM: TGI (HOP-62 NSCLC)
11.9 µM: TGI (NCI-H522 lung)
26.9 µM: TGI (MDA-MB-468 breast)
73.6 µM: TGI (HOP-92 NSCLC)
> 100 µM: TGI (HCT-15 colon) | TGI (A549 NSCLC) | TGI (OVCAR-3 ovarian) | TGI (SNB-19 CNS) | TGI (U251 glioblastoma) | TGI (HS 578T breast) | TGI (EKVX NSCLC) | TGI (SN12C renal) | TGI (LOX IMVI melanoma) | TGI (KM12 colon) | TGI (UO-31 renal) | TGI (T-47D breast) | TGI (MDA-MB-435 melanoma) | TGI (SW-620 colon)
36.2 µM: TGI (OVCAR-8 ovarian)
2.78 µM: TGI (SK-OV-3 ovarian)
57.2 µM: TGI (RPMI-8226 leukemia)
0.392 µM: TGI (MALME-3M melanoma)
active: GI50 (OVCAR-4 ovarian) 0.0142 µM | GI50 (MALME-3M melanoma) 0.0294 µM
40.9 µM: TGI (HCC-2998 colon)
